Laboratory results taken from BigSolDB 2.1.

CC(C)(C)c1cc(O)c(C(C)(C)C)cc1O
Settings | solubility (mole fraction)
in acetone, 283.35 K | 0.0332
in acetone, 285.65 K | 0.0365
in acetone, 288.25 K | 0.0413
in acetone, 290.55 K | 0.0456
in acetone, 293.15 K | 0.0519
in acetone, 295.35 K | 0.057
in acetone, 298.05 K | 0.0636
in acetone, 300.35 K | 0.0691
in acetone, 303.15 K | 0.0775
in acetone, 305.45 K | 0.0836
in acetone, 308.05 K | 0.0929
in acetone, 310.25 K | 0.1
in acetone, 313.05 K | 0.12
in acetone, 316.15 K | 0.123
in acetone, 319.15 K | 0.136
in acetone, 321.15 K | 0.148
in acetone, 323.15 K | 0.161
in ethyl acetate, 278.95 K | 0.144
in ethyl acetate, 281.55 K | 0.145
in ethyl acetate, 284.45 K | 0.146
in ethyl acetate, 287.35 K | 0.148
in ethyl acetate, 290.45 K | 0.148
in ethyl acetate, 293.15 K | 0.15
in ethyl acetate, 296.25 K | 0.151
in ethyl acetate, 298.85 K | 0.153
in ethyl acetate, 301.85 K | 0.155
in ethyl acetate, 304.75 K | 0.157
in ethyl acetate, 307.45 K | 0.158
in ethyl acetate, 310.45 K | 0.161
in ethyl acetate, 312.35 K | 0.163
in ethyl acetate, 316.15 K | 0.166
in ethyl acetate, 319.15 K | 0.169
in ethyl acetate, 322.15 K | 0.17
in ethyl acetate, 325.15 K | 0.173
in ethyl acetate, 328.15 K | 0.177
in ethyl acetate, 331.15 K | 0.18
in ethyl acetate, 335.15 K | 0.183
in ethyl acetate, 337.15 K | 0.186
in ethyl acetate, 340.15 K | 0.188
in ethyl acetate, 343.15 K | 0.194
in ethyl acetate, 346.15 K | 0.195
in methanol, 280.95 K | 0.0647
in methanol, 283.55 K | 0.065
in methanol, 285.95 K | 0.0651
in methanol, 288.15 K | 0.0653
in methanol, 290.65 K | 0.0658
in methanol, 293.15 K | 0.0667
in methanol, 295.55 K | 0.0678
in methanol, 297.95 K | 0.0688
in methanol, 300.65 K | 0.0697
in methanol, 302.65 K | 0.0707
in methanol, 305.15 K | 0.0712
in methanol, 307.25 K | 0.072
in methanol, 309.85 K | 0.0727
in methanol, 312.05 K | 0.0734
in methanol, 316.15 K | 0.0766
in methanol, 319.15 K | 0.078
in methanol, 322.15 K | 0.08
in methanol, 325.15 K | 0.0811
in methanol, 328.15 K | 0.0833
in methanol, 331.15 K | 0.0849
in methanol, 333.15 K | 0.0863
